Here are results for 15 compounds from ChEMBL document CHEMBL3045267, “Aromatic-ring-functionalised benzoxazinones in the system Oryza sativa-Echinochloa crus-galli as biorational herbicide models” (Pest Manag Sci, 2009).

The subject of series [1] is Echinochloa crus-galli. The experiment in a line: Herbicidal activity against Echinochloa crus-galli (barnyard grass) assessed as inhibition of root length after 5 days at 25 degC. Conditions: 120 h. Format: functional, organism-based.
For the next series, the system named is Oryza sativa. The experiment in a line: Phytotoxicity against Oryza sativa (rice) assessed as inhibition of root length after 7 days at 25 degC. Format: organism-based. Conditions: 168 h.
Series [2] in a line: Phytotoxicity against Oryza sativa (rice) assessed as inhibition of root length at 64 uM after 7 days at 25 degC. Conditions: whole organism (rice plants, root growth). Format: organism-based.
For series [3], the system named is Echinochloa crus-galli. Nature of the series: Herbicidal activity against Echinochloa crus-galli (barnyard grass) assessed as inhibition of root length at 64 uM after 5 days at 25 degC. Format: functional. Conditions: 120 h.

SMILES strings stand for the structures. pIC50: −log10 of the molar value.

What is called pIC50 is the negative decadic logarithm of the IC50, by convention in mol/L. Broadly, the inhibition is the relative decrease from the control value, in per cent.

With `O=C1COc2c(ccc(F)c2F)N1O` [7,8-diF-D-DIBOA], the pIC50 with Echinochloa crus-galli [1] was 4.28; with Oryza sativa, 3.80.

For the compound `O=C1COc2ccccc2N1O`, the pIC50 in the series with Echinochloa crus-galli [1] was 3.44. For the compound `COc1ccc2c(c1)OCC(=O)N2O`, in the series on Echinochloa crus-galli [1], the negative logarithm of the IC50 (pIC50) is 3.09. Regarding `O=C1COc2cc(F)ccc2N1O` [7-F-D-DIBOA], the pIC50 was 3.89 in the series with Echinochloa crus-galli [1] and 3.77 with Oryza sativa.

For `COc1ccc2c(c1)N(O)C(=O)CO2` [6-MeO-D-DIBOA], the pIC50 in the series with Echinochloa crus-galli [1] was 3.80.

As for `COc1ccc2c(c1OC)OCC(=O)N2O` [7,8-diMeO-D-DIBOA], in the series on Echinochloa crus-galli [1], the pIC50 is 3.16.

With `O=C1COc2ccc(F)cc2N1O` [6-F-D-DIBOA], the values for the negative logarithm of the IC50 (pIC50) with Echinochloa crus-galli [1] and in the series with Oryza sativa were 5.55 and 5.05, respectively.

For the compound `COC(=O)c1ccc2c(c1)N(O)C(=O)CO2` [6-MeOCO-D-DIBOA], the pIC50 in the series with Echinochloa crus-galli [1] was 3.64. As for `CCC(=O)Nc1ccc(Cl)c(Cl)c1` [PROPANIL], the pIC50 in the series on Oryza sativa was 3.67.

For the compound `O=C1COc2ccc(Cl)cc2N1O` [6-Cl-D-DIBOA], the pIC50 in the series on Echinochloa crus-galli [1] is 5.10; in the series with Oryza sativa, 5.52.

On to `COC(=O)c1ccc2c(c1)OCC(=O)N2O` [7-MeOCO-D-DIBOA], for which the pIC50 in the series on Echinochloa crus-galli [1] was 2.78. For `O=C1COc2c(Cl)cccc2N1O` [8-Cl-D-DIBOA], the inhibition at 168 h, 64 µM in series [2] stood at 10%. The pIC50 was 4.36 with Echinochloa crus-galli [1] and 3.30 in the series with Oryza sativa. Moreover, in the series with Echinochloa crus-galli [3], the inhibition at 64 µM is 60%. Consider `O=C1COc2c(F)cccc2N1O` [8-F-D-DIBOA], for which the negative logarithm of the IC50 (pIC50) in the series on Echinochloa crus-galli [1] was 4.16; in the series on Oryza sativa, 3.73. In the same order, the values of `O=C1COc2ccc(C(F)(F)F)cc2N1O` [6-CF3-D-DIBOA] are 3.80 and 3.58. In the same order, the values of `O=C1COc2c(Cl)cc(Cl)cc2N1O` [6,8-diCl-D-DIBOA] are 3.55 and 2.48.
